Read-outs that look alike come from different tables or passages of the source.

The source of these data is US20180187184A1, “NOVEL CONSTRUCTS AND SCREENING METHODS” (Systasy Bioscience GmbH, priority 2016, published 2018).

One assay concerns primary neurons. The experiment in a line: Rotenone dose-response cell viability assay (nuclei count, genomic DNA and total RNA quantification). The assay is classed as cell-based, mouse. The settings on record: for IC50: Mus musculus, Primary neuron, 168 h. The procedure:
Cells were incubated under appropriate culturing conditions until DIV14.
Cell nuclei were stained on DIV14 with Hoechst dye and evaluated with a Zeiss Observer Z1 microscope. Subsequently, the neuron cultures were lysed and gDNA as well as total RNA was isolated using the Qiagen AllPrep DNA/RNA Mini Kit. The gDNA and total RNA concentrations were determined using a UV spectrophotometer.
The present inventors first evaluated changes in the abundance of genomic DNA and total RNA in response to cytotoxic stress within a primary neuron population.

Another assay relates to E-SARE sensor. Kind of assay: E-SARE luciferase activity in primary neurons upon stimulation. The conditions noted are these: DIV14. The assay is classed as cell-based, mouse. An excerpt:
For multiplate assays, cells were transfected (for cell lines) using Lipofectamine2000 (Invitrogen) according to the manufacturer's instructions or infected (for primary neurons) by an E-SARE-luciferase containing AAV with 500-1000 AAV GCs per cell.
The assay compares an unstimulated response with a stimulated response.
Finally, the E-SARE sensor not only responds to neuronal silencing (TTX/APV) and synaptic stimulation (BIC/4-AP), but can also be induced by brain-derived neurotrophic factor (BDNF) which is a well-established stimulus with functions in neuronal differentiation and plasticity (FIG. 6C) (Park H and Poo M. Nat Rev Neurosci. 2013 January; 14(1):7-23). The optimized and validated E-SARE sensor has been subsequently used for developing the pooled RNAi screen in primary neurons.

For `C=C(C)[C@H]1Cc2c(ccc3c2O[C@@H]2COc4cc(OC)c(OC)cc4[C@@H]2C3=O)O1` [rotenone], the IC50 stood at 40 nM with primary neurons (read-out: IC50, genomic DNA content); 15 nM in the assay on primary neurons (read-out: IC50, total RNA content); 14 nM with primary neurons (read-out: IC50, viable cells (pyknotic nuclei filtered out)). Also, the “reduction of genomic DNA content” value in the assay on primary neurons (rotenone concentrations above 100 nM, 7 days) is on record as about 40%.

B1: brain-derived neurotrophic factor (protein, UniProt P23560 19-247, looked up)
Neurotrophic factor BDNF …: APMKEANIRGQGGLAYPGVRTHGTLESVNGPKAGSRGLTSLADTFEHVIEELLDEDQKVRPNEENNKDADLYTSRVMLSSQVPLEPPLLFLLEEYKNYLDAANMSMRVRRHSDPARRGELSVCDSISEWVTAADKKTAVDMSGGTVTVLEKVPVSKGQLKQYFYETKCNPMGYTKEGCRGIDKRHWNSQCRTTQSYVRALTMDSKKRIGWRFIRIDTSCVCTLTIKRGR
notes: well-established stimulus with functions in neuronal differentiation and plasticity
With B1, in the assay on E-SARE sensor, the E-SARE sensor activity entry was “induced”.

A word on the IC50: it is the point on the concentration scale where inhibition reaches its midpoint.
